Experiment [1] concerns the target Caspase-9 (Homo sapiens, UniProt P55211). In words: inhibitors of purified CASP9 protease – biochemical, fluorescence, plate reader, cherry-picked samples, selectivity assay for caspase-6 inhibitor project, dose response (AID 743293).
Experiment [2] addresses T1, Caspase-3 (Homo sapiens, UniProt P42574).
T1 sequence (P42574 whole entry): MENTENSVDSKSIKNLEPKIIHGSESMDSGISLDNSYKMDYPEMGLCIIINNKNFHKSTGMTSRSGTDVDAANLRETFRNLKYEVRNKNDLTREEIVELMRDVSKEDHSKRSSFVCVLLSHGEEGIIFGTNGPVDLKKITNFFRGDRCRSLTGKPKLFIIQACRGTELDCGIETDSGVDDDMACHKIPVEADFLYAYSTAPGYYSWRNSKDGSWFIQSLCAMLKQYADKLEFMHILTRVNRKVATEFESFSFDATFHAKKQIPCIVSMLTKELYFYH
In kind it is functional.

In experiment [3] the test system is HEK293. In words: optical interference in Abeta FP readout, dose response, artefact control for IDE activator project, biochemical, fluorescence polarization (AID 588442). Particulars: Homo sapiens. It is filed as functional, cell-based. Background: Fluorescence polarisation rises when a labelled molecule tumbles more slowly, as on binding a larger partner.
The target in experiment [4] is ORF 73 (Human herpesvirus 8, UniProt O40947). The experiment in a line: KSHV LANA DNA-binding disruption – biochemical, fluorescence polarization, cherry-picked samples, dose response (AID 504725).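 Note: fluorescence polarization of a labeled DNA duplex reporting LANA DNA binding; potency is for inhibitors that block LANA binding to the DNA.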 Set-up: species or system Human gammaherpesvirus 8.
The target of experiment [5] is Mast/stem cell growth factor receptor Kit (Homo sapiens, UniProt P10721). In kind it is functional.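 Note: KIT entry within a kinase panel assay.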
Experiment [6] addresses BDNF/NT-3 growth factors receptor (Homo sapiens, UniProt Q16620). It is filed as functional.
Experiment [7] has as its target Tyrosine-protein kinase Blk (Homo sapiens, UniProt P51451). In kind it is functional.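 Note: obtained as one member of a kinome-wide kinase assay panel.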
The target of experiment [8] is Serine/threonine-protein kinase MRCK alpha (Homo sapiens, UniProt Q5VT25). In kind it is functional.
The target in experiment [9] is Serine/threonine-protein kinase pim-2 (Homo sapiens, UniProt Q9P1W9). In kind it is functional.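 Note: value comes from a broad kinase panel profiling study in which PIM2 was one of the panel members.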
In experiment [10] the target is Mitogen-activated protein kinase 13 (Homo sapiens, UniProt O15264). It is filed as functional.
Experiment [11] deals with Serine/threonine-protein kinase 3 (Homo sapiens, UniProt Q13188). In kind it is functional.
Experiment [12] has as its target Tyrosine-protein kinase ITK/TSK (Homo sapiens, UniProt Q08881). In kind it is functional.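 Note: affinity for ITK measured as one member of a broad kinase panel profiling binding across the kinome.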
In experiment [13] the target is Serine/threonine-protein kinase PLK4 (Homo sapiens, UniProt O00444). In kind it is functional.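 Note: PLK4 measured as one member of a kinome-wide kinase profiling panel.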
In experiment [14] the target is Dual specificity tyrosine-phosphorylation-regulated kinase 4 (Homo sapiens, UniProt Q9NR20). It is filed as functional.
Experiment [15] has as its target Ribosomal protein S6 kinase alpha-3 (Homo sapiens, UniProt P51812). It is filed as functional.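 Note: measured within a kinome-wide profiling panel.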
Experiment [16] concerns the target Rho-associated protein kinase 2 (Homo sapiens, UniProt O75116). It is filed as functional.
For experiment [17], the target named is MAP kinase-activated protein kinase 3 (Homo sapiens, UniProt Q16644). It is filed as functional.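 Note: value comes from a kinome-wide profiling panel in which MAPKAPK3 is one of the panel members.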
Experiment [18] addresses Protein kinase C gamma type (Homo sapiens, UniProt P05129). In kind it is functional.
Experiment [19] has as its target Glycogen synthase kinase-3 alpha (Homo sapiens, UniProt P49840). It is filed as functional.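 Note: GSK3A result taken from a broad kinome-wide kinase panel.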
The target of experiment [20] is Receptor tyrosine-protein kinase erbB-4 (Homo sapiens, UniProt Q15303). It is filed as functional.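 Note: ERBB4 member of a kinome-wide kinase profiling panel.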
For experiment [21], the target named is Non-receptor tyrosine-protein kinase TYK2 (Homo sapiens, UniProt P29597). It is filed as functional.
Experiment [22] addresses RAC-alpha serine/threonine-protein kinase (Homo sapiens, UniProt P31749). In kind it is functional.
The target in experiment [23] is Interleukin-1 receptor-associated kinase 4 (Homo sapiens, UniProt Q9NWZ3). In kind it is functional.
In experiment [24] the target is T2, cAMP-dependent protein kinase catalytic subunit PRKX (Homo sapiens, UniProt P51817).
T2 sequence (P51817 whole entry): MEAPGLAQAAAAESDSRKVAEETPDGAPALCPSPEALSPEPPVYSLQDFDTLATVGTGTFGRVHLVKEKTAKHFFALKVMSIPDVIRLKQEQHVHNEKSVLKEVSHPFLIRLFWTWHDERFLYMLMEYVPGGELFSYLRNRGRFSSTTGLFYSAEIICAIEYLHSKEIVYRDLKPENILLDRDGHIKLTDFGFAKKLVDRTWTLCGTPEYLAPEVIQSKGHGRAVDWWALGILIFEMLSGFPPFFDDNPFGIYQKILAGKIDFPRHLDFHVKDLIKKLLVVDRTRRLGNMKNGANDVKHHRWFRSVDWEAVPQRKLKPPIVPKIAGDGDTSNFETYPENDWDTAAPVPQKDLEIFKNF
In kind it is functional.

The target of experiment [25] is Calcium/calmodulin-dependent protein kinase type II subunit gamma (Homo sapiens, UniProt Q13555). It is filed as functional.
The target in experiment [26] is Proto-oncogene tyrosine-protein kinase Src (Homo sapiens, UniProt P12931). In kind it is functional.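 Note: SRC entry within a kinome-wide kinase profiling panel.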
Experiment [27] concerns the target Dual specificity tyrosine-phosphorylation-regulated kinase 1B (Homo sapiens, UniProt Q9Y463). In words: Navigating the Kinome. Panel member name: DYRK1B. In kind it is functional.
Experiment [28] concerns the target Proto-oncogene tyrosine-protein kinase ROS (Homo sapiens, UniProt P08922). It is filed as functional.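 Note: ROS1 tested as one member of a kinome-wide kinase panel.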
Experiment [29] addresses Dual specificity protein kinase CLK4 (Homo sapiens, UniProt Q9HAZ1). In kind it is functional.
Experiment [30] deals with Platelet-derived growth factor receptor beta (Homo sapiens, UniProt P09619). In kind it is functional.

From ChEMBL document CHEMBL1201862, “PubChem BioAssay data set” (2004) come the findings set out here.

Active and inactive are the calls of the source. Some results are limits rather than exact numbers.

Usually AC50 stands for the concentration giving half of the maximal activity seen. As a reminder, the IC50 is the point on the concentration scale where inhibition reaches its midpoint. The EC50 is the concentration that produces a half-maximal response. As a reminder, the Ki is a dissociation constant, usually derived from enzyme kinetics or from competition with a known ligand. For orientation: pKi means −log10 of the Ki, conventionally taken in molar units.
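Throughout, for IC50: Dose-response selectivity test against caspase-3 for candidate inhibitors of sentrin-specific proteases (SENPs).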

Sequence of Glycogen synthase kinase-3 alpha (P49840 whole entry): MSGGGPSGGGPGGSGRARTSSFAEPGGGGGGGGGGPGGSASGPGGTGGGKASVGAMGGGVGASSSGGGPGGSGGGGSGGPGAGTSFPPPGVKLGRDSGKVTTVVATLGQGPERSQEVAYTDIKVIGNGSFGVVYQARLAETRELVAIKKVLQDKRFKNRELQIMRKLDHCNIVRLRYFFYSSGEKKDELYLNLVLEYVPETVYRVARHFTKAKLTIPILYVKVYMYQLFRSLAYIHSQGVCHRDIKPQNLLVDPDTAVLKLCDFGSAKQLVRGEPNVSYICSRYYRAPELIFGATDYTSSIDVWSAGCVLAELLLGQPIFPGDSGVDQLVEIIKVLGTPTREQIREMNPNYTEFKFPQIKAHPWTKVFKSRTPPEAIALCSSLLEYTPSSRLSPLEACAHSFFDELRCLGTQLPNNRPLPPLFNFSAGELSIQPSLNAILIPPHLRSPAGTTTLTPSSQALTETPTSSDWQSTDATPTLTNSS
Sequence of BDNF/NT-3 growth factors receptor (Q16620 whole entry): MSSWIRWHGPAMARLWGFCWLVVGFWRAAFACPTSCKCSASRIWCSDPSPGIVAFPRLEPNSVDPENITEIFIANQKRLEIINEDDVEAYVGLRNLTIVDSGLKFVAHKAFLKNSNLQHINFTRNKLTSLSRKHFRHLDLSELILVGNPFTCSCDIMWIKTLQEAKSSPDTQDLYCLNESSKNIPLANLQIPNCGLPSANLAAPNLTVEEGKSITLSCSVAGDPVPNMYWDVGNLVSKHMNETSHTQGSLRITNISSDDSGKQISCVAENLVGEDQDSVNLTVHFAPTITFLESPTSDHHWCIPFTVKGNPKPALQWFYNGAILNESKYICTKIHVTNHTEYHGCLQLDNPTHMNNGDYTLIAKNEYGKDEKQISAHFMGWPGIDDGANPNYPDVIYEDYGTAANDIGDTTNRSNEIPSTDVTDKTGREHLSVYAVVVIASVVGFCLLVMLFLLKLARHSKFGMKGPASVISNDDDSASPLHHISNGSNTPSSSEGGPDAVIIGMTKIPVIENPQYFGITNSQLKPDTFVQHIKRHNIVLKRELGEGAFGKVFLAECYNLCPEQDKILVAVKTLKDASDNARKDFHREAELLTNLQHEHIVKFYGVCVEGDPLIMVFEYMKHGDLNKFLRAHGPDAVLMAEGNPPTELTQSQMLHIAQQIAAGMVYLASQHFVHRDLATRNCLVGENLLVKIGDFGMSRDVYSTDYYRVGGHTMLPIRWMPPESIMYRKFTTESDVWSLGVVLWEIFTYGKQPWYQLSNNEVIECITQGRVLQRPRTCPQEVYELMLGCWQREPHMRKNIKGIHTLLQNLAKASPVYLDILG
Sequence of Dual specificity tyrosine-phosphorylation-regulated kinase 1B (Q9Y463 whole entry): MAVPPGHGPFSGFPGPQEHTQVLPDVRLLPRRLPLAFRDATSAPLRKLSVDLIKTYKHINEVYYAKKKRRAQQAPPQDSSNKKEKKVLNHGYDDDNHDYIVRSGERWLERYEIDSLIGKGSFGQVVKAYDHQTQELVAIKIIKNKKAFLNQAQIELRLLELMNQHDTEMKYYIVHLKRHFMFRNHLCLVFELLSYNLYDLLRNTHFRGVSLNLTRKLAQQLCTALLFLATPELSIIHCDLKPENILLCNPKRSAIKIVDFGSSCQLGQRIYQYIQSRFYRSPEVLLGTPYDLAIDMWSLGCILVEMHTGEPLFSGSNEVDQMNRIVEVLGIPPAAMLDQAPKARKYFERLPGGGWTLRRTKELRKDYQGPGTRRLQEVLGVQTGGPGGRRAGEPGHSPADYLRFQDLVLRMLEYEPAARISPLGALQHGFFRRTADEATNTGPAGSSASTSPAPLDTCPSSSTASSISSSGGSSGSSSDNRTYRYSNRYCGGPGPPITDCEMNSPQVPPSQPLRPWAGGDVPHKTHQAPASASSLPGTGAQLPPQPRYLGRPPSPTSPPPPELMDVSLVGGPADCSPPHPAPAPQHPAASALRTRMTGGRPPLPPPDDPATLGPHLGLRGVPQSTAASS
Sequence of Dual specificity tyrosine-phosphorylation-regulated kinase 4 (Q9NR20 whole entry): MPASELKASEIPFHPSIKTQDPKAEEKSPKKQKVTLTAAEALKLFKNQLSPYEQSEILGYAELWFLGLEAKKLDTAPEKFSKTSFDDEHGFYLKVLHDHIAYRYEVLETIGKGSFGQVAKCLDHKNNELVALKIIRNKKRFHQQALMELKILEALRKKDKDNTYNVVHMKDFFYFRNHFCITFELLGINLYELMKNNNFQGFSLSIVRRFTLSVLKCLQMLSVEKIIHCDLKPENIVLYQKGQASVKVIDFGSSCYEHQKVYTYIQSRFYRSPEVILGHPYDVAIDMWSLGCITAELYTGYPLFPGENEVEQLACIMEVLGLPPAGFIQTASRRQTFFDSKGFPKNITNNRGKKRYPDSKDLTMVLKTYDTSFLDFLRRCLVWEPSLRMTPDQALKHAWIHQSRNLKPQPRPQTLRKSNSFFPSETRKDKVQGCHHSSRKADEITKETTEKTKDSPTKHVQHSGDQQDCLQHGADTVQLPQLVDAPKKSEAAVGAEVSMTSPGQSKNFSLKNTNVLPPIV
Sequence of Serine/threonine-protein kinase 3 (Q13188 whole entry): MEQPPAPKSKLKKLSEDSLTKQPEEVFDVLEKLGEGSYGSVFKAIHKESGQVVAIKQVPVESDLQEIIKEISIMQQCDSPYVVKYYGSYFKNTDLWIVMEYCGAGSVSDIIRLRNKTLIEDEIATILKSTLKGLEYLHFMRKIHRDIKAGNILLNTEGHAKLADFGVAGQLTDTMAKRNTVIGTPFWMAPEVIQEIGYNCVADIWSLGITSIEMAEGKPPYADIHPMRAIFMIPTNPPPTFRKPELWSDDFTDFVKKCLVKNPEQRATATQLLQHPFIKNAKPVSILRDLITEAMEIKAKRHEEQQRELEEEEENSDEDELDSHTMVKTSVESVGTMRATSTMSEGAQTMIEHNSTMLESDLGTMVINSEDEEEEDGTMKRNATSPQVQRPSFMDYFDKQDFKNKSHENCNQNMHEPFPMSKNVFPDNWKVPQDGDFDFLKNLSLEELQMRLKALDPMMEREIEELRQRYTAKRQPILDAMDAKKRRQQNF
Sequence of Mitogen-activated protein kinase 13 (O15264 whole entry): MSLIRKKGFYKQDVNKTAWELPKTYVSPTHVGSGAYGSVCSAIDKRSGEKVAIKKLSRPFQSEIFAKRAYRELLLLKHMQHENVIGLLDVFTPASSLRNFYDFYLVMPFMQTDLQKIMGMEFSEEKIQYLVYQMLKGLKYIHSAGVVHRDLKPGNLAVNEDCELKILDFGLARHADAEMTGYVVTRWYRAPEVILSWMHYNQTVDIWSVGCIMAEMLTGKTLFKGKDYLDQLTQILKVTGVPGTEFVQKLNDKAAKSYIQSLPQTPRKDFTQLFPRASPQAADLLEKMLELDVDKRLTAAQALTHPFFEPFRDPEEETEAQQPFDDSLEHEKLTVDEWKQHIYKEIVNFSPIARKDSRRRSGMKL
Sequence of Ribosomal protein S6 kinase alpha-3 (P51812 whole entry): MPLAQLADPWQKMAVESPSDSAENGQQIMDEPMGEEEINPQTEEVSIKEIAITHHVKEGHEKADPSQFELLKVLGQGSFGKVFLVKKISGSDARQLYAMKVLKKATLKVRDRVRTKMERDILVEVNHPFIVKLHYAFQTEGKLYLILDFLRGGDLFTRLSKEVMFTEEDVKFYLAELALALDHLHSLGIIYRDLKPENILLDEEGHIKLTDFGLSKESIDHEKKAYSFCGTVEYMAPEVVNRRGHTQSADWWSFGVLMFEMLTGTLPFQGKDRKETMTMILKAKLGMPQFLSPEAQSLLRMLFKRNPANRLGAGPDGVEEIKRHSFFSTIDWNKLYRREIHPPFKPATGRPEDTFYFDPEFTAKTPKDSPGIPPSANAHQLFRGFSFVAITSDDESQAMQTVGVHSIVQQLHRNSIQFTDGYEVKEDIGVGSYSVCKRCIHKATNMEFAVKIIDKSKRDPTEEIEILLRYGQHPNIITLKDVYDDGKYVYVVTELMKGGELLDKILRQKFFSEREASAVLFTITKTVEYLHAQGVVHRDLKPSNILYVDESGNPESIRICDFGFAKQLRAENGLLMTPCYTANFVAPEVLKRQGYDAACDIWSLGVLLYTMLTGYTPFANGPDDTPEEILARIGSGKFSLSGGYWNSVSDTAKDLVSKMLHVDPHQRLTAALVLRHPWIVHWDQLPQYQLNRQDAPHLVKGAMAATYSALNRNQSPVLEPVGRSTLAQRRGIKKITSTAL

Take `O=C(COC(=O)c1ccc([N+](=O)[O-])s1)Nc1ccc(F)cc1`: the AC50 in experiment [1] is 27200 nM (active). The IC50 in experiment [2] is 8430 nM (active).

With `CCN(CC)CCCC(C)n1c2nc(=O)[nH]c(=O)c-2nc2cc(Cl)ccc21` (stereo not given), the EC50 in experiment [3] is > 54700 nM (inactive). Moreover, in experiment [4], the AC50 was 370 nM (active).

Turning to `OC1CCC(Nc2nc(Cl)cc(-c3c[nH]c4ncccc34)n2)CC1` (stereo not given), the Ki in experiment [5] is > 1260 nM (inactive); in experiment [6] it was 398 nM (active); in experiment [7] it was > 1580 nM (inactive); in experiment [8], 31.6 nM (active); in experiment [9], 398 nM (active); in experiment [10], 126 nM (active). The Ki in experiment [11] was 50.1 nM (active); in experiment [12], 398 nM (active); in experiment [13], > 3980 nM (inactive); in experiment [14], 3160 nM (active); in [15] it was 100 nM (active); in experiment [16], > 3.98 nM (inactive). In addition, the Ki in experiment [17] was > 10000 nM (inactive); in experiment [18], 200 nM (active); in experiment [19] it was 63.1 nM (active); in [20] it was > 3980 nM (inactive); in [21], 1000 nM (active); in experiment [22], 2000 nM (active). Moreover, the Ki is 39.8 nM (active) in experiment [23]; 63.1 nM (active) in experiment [24]; 31.6 nM (active) in experiment [25]; > 2000 nM (inactive) in [26]; 2.51 nM (active) in [27]; 158 nM (active) in [28]. Besides, the negative logarithm of the Ki (pKi) in [6] is listed as 6.4; in [8], 7.5; in [9], 6.4; in experiment [10], 6.9; in experiment [11] it was 7.3; in experiment [12], 6.4. In addition, the pKi was 5.5 in experiment [14]; 7 in experiment [15]; 6.7 in [18]; 7.2 in [19]; 5.7 in [22]; 7.4 in [23]. The pKi in experiment [24] was 7.2; in experiment [25] it was 7.5; in experiment [27], 8.6; in experiment [28], 6.8.

As to `COc1cccc(CNC(=O)c2cnc(-c3ccncc3)nc2)c1`, the Ki is > 3980 nM (inactive) in experiment [6]; > 2510 nM (inactive) in [29]; > 2000 nM (inactive) in experiment [30]; > 3980 nM (inactive) in experiment [19]; 2000 nM (active) in experiment [24]; > 2510 nM (inactive) in [27].
